Results published in US11866641B2, “Method for fracking subterranean geological formation with surfactant-containing fluid” (KING FAHD UNIVERSITY OF PETROLEUM AND MINERALS, priority 2019, dated 2024).
“Also recorded” adds a separate entry of the source.

Columns and labels:
Type in all cases: physicochemical
[1] = Thermogravimetric analysis (TGA), thermal stability; conditions: 20° C./min, nitrogen; for Thermal stability by TGA, stable up to: 30-500° C.
Experimental: TGA graph was obtained using SDT Q600 machine (TA instrument) with continuous heating at 20° C./min. The heating range 30-500° C. with a stable flow of nitrogen at 100 mL/min.

[2] = Salt tolerance / solubility of surfactant solutions in DW, SW and FW; conditions: for Solubility and salt tolerance in DW, SW and FW: 10 wt % solutions in DW; for Solubility and salt tolerance in DW, SW and FW / Precipitation or phase separation of solutions in FW, SW and DW / Precipitation or phase separation in formation water (FIG. 5) / Precipitation or phase separation in seawater (FIG. 4): 90 days at 90° C.; for Solubility in simulated SW and FW: up to 90 days at 90° C.
Experimental: 10 wt % solutions of OPAC, OPAS, and OPAH were prepared in DW, SW, and FW and kept in the oven for 90 days at 90° C.

[3] = Surface tension, force tensiometer with Wilhelmy plate; conditions: water
Experimental: Surface activities of OPAC, OPAS, and OPAH were determined using a force tensiometer with a platinum Wilhelmy plate (Sigma 702, Biolin Scientific). The test temperatures were 30° C. and 60° C. The plate was flushed with deionized water before heating it red hot to ensure it was properly cleaned. The surface tension of deionized water was measured three times to check if the cleanup procedure yielded repeatable results. The samples were covered to minimize evaporation, but with enough space to let the plate go through the covering during the measurement.
The surface tension data was used to estimate other properties using the following equations:
[formula] [formula] [formula] where cmc is critical micelle concentration, γ0 represents surface tension of water without surfactant, γcmc is surface tension at cmc, πcmc Represents the ability of the surfactant to reduce the surface tension, rmax is the maximum surface access, Avogadro number is represented by NA, dγ/dlnC is the slope, C represents the concentration of surfactant, temperature, and gas constant are represented by T and R, respectively, Amin is the minimum area per molecule, and the values of n is 1 for zwitterionic surfactants. Synthesis

| Substance | Thermal stability by TGA, stable up to [1] | Initial loss in weight (TGA; associated with water and solvent) [1] | Temperature of big weight loss / decomposition temperature (TGA) [1] | Solubility and salt tolerance in DW, SW and FW [2] | Precipitation or phase separation of solutions in FW, SW and DW [2] | Precipitation or phase separation in formation water (FIG. 5) [2] | Precipitation or phase separation in seawater (FIG. 4) [2] | Solubility in simulated SW and FW [2] | Amin (minimum area per molecule) ([3]; 30° C.) | cmc ([3]; 30° C.) | Γmax × 10^6 (maximum surface excess) ([3]; 30° C.) | γcmc (surface tension at cmc) ([3]; 30° C.) | πcmc (ability to reduce the surface tension) ([3]; 30° C.) | Amin (minimum area per molecule) ([3]; 60° C.) | cmc ([3]; 60° C.) | Γmax × 10^6 (maximum surface excess) ([3]; 60° C.) | γcmc (surface tension at cmc) ([3]; 60° C.) | πcmc (ability to reduce the surface tension) ([3]; 60° C.) |
| --- | --- | --- | --- | --- | --- | --- | --- | --- | --- | --- | --- | --- | --- | --- | --- | --- | --- | --- |
| Oleyl Polyoxyethylene Amidopropyl Hydroxy Sulfobetaine [OPAH] | ~300 °C | 29% | 307 °C | compatible and soluble with all kinds of water; also recorded: excellent solubility | no precipitation or phase separation was detected | no signs of precipitation or phase separation | no signs of precipitation or phase separation | soluble | 0.62 nm^2 | 7.1e-05 mol/L | 2.66 mol m^−2 | 36.89 mN m^−1 | 34.96 mN/m | 0.71 nm^2 | 3.35e-05 mol/L | 2.33 mol m^−2 | 33.68 mN m^−1 | 38.07 mN/m |
| Oleyl Polyoxyethylene Amidopropyl Sulfobetaine [OPAS] | ~300 °C | 25% | 295 °C | compatible and soluble with all kinds of water; also recorded: excellent solubility | no precipitation or phase separation was detected | no signs of precipitation or phase separation | no signs of precipitation or phase separation | soluble | 0.77 nm^2 | 3.66e-05 mol/L | 2.15 mol m^−2 | 37.04 mN m^−1 | 35.59 mN/m | 1.01 nm^2 | 3.41e-05 mol/L | 1.64 mol m^−2 | 33.74 mN m^−1 | 38.26 mN/m |
| Oleyl Polyoxyethylene Amindopropyl Carboxybetaine [OPAC] | ~300 °C | 30% | 312 °C | compatible and soluble with all kinds of water; also recorded: excellent solubility | no precipitation or phase separation was detected | no signs of precipitation or phase separation | no signs of precipitation or phase separation | soluble | 0.97 nm^2 | 0.000346 mol/L | 1.70 mol m^−2 | 34.67 mN m^−1 | 37.33 mN/m | 1.04 nm^2 | 9.7e-05 mol/L | 1.58 mol m^−2 | 32.24 mN m^−1 | 39.76 mN/m |
